In US20060247231A1, “Amide and ester matrix metalloproteinase inhibitors” (Warner-Lambert Company LLC, priority 2003, published 2006):

Tests used:
Type in all cases: biochemical
[1] = molecular target: T1, MMP-13 catalytic domain (MMP-13CD) (Homo sapiens, UniProt P45452); test: MMP-13 catalytic domain inhibition (Biological Methods 1, 2, or 5)
T1 construct: particularly MMP-13 catalytic domain (“MMP-13CD”)
Method: (§1) Thiopeptolide substrates show virtually no decomposition or hydrolysis at or below neutral pH in the absence of a matrix metalloproteinase enzyme. A typical thiopeptolide substrate commonly utilized for assays is Ac-Pro-Leu-Gly-thioester-Leu-Leu-Gly-OEt. A 100 μL assay mixture will contain a suitable amount of the MMP enzyme such as an amount described in Ye Qi-Zhuang, et al., 1996, supra, 50 mM of N-2-hydroxyethylpiperazine-N′-2-ethanesulfonic acid buffer (“HEPES,” pH 7.0), 10 mM CaCl2, 100 μM thiopeptolide substrate, and 1 mM 5,5′-dithio-bis-(2-nitro-benzoic acid) (DTNB). The thiopeptolide substrate concentration may be varied, for example from 10 to 800 μM to obtain Km and Kcat values. The change in absorbance at 405 nm is monitored on a Thermo Max microplate reader (molecular Devices, Menlo Park, Calif.) at room temperature (22° C.). The calculation of the amount of hydrolysis of the thiopeptolide substrate is based on E412=13600 M^−1 cm^−1 for the DTNB-derived product 3-carboxy-4-nitrothiophenoxide. Assays are carried out with and without matrix metalloproteinase inhibitor compounds, and the amount of hydrolysis is compared for a determination of inhibitory activity of the test compounds.
(§2) Test compounds are evaluated at various concentrations in order to determine their respective IC50 values, the micromolar concentration of compound required to cause a 50% inhibition of catalytic activity of the respective enzyme.
(§3) Test compounds can be evaluated according to Biological Method 1 at various concentrations in order to determine their respective IC50 values, typically the micromolar concentration of compound required to cause a 50% inhibition of the hydrolytic activity of the respective enzyme.
(§4) Some representative compounds of Formula I have been evaluated according to Biological Method 1 for their ability to inhibit MMP-13 and other MMP enzymes, including MMP-1, MMP-2, MMP-3, MMP-7, MMP-8, MMP-9, MMP-12, MMP14, and MMP-17. Inhibitor activity versus other MMPs with the compounds may be determined using, for example, MMP-1FL, which refers to full length interstitial collagenase; MMP-2FL, which refers to full length Gelatinase A; MMP-3CD, which refers to the catalytic domain of stromelysin; MMP-7FL, which refers to full length matrilysin; MMP-9FL, which refers to full length Gelatinase B; MMP-13CD, which refers to the catalytic domain of collagenase 3; and MMP-14CD, which refers to the catalytic domain of MMP-14.
(§5) The method of Biological Method 1, except thiopeptolide substrate is replaced with a fluorigenic peptide such as Fluorigenic peptide-1.
Fluorigenic peptide-1 substrate based assay for identifying compounds of Formula I as allosteric inhibitors of MMP-13:
• 50 mM HEPES buffer (pH 7.0) • 10 mM CaCl2 • 10 μM fluorigenic peptide-1 (“FP1”) substrate • 0 or 15 mM acetohydroxamic acid (AcNHOH)=1 Kd • 2% DMSO (with or without inhibitor test compound) • 0.5 nM MMP-13CD enzyme Stock Solutions: • 1) 10× assay buffer: 500 mM HEPES buffer (pH 7.0) plus 100 mM CaCl2 • 2) 10 mM FP1 substrate: (Mca)-Pro-Leu-Gly-Leu-(Dnp)-Dpa-Ala-Arg-NH2 (Bachem, M-1895; “A novel coumarin-labeled peptide for sensitive continuous assays of the matrix metalloproteinases,” Knight C. G., Willenbrock F., and Murphy, G., FEBS Lett., 1992;296:263-266). Is prepared 10 mM stock by dissolving 5 mg FP1 in 0.457 mL DMSO. • 3) 3 M AcNHOH: Is prepared by adding 4 mL H2O and 1 mL 10× assay buffer to 2.25 g AcNHOH (Aldrich 15,903-4). Adjusting pH to 7.0 with NaOH. Diluting volume to 10 mL with H2O. Final solution will contain 3 M AcNHOH, 50 mM HEPES buffer (pH 7.0), and 10 mM CaCl2. • 4) AcNHOH dilution buffer: 50 mM HEPES buffer (pH 7.0) plus 10 mM CaCl2 • 5) MMP-13CD enzyme: Stock concentration=250 nM. • 6) Enzyme dilution buffer: 50 mM HEPES buffer (pH 7.0), 10 mM CaCl2, and 0.005% BRU 35 detergent (Calbiochem 203728; Protein Grade, 10%) Procedure (For One 96-well Microplate): • A. Prepared assay mixture: […]

[2] = molecular target: T2, MMP-1FL (full length interstitial collagenase) (Homo sapiens, UniProt P03956); test: MMP-1 full-length inhibition (Biological Methods 1, 2, or 5)
T2 sequence (P03956 100-469): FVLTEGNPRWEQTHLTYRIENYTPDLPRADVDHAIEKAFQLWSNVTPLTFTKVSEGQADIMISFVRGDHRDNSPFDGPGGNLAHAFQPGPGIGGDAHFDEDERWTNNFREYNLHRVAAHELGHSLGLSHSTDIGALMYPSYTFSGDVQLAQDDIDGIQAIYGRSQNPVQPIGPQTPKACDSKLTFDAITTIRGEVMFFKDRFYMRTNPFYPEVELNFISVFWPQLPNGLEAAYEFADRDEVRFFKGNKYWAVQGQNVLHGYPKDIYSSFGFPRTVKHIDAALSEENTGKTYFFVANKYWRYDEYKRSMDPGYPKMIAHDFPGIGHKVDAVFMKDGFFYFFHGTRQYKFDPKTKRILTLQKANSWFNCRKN
Method: (§6) Thiopeptolide substrates show virtually no decomposition or hydrolysis at or below neutral pH in the absence of a matrix metalloproteinase enzyme. A typical thiopeptolide substrate commonly utilized for assays is Ac-Pro-Leu-Gly-thioester-Leu-Leu-Gly-OEt. A 100 μL assay mixture will contain a suitable amount of the MMP enzyme such as an amount described in Ye Qi-Zhuang, et al., 1996, supra, 50 mM of N-2-hydroxyethylpiperazine-N′-2-ethanesulfonic acid buffer (“HEPES,” pH 7.0), 10 mM CaCl2, 100 μM thiopeptolide substrate, and 1 mM 5,5′-dithio-bis-(2-nitro-benzoic acid) (DTNB). The thiopeptolide substrate concentration may be varied, for example from 10 to 800 μM to obtain Km and Kcat values. The change in absorbance at 405 nm is monitored on a Thermo Max microplate reader (molecular Devices, Menlo Park, Calif.) at room temperature (22° C.). The calculation of the amount of hydrolysis of the thiopeptolide substrate is based on E412=13600 M^−1 cm^−1 for the DTNB-derived product 3-carboxy-4-nitrothiophenoxide. […]
as §4, with “MMP-14. […]” for “MMP-14.”
(§7) Shown below in Table 1 are the inhibition of MMP-13 catalytic domain, expressed as IC50's, for the compounds of Compound Examples A1 to A8, B1 to B4, and C1 in the column labelled “MMP-13CD IC50 (μM)”.

[3] = molecular target: MMP-3CD (catalytic domain of stromelysin) (Homo sapiens, UniProt P08254); test: MMP-3 catalytic domain inhibition (Biological Methods 1, 2, or 5)
Chain of MMP-3CD (catalytic domain of stromelysin) (P08254 100-272 limits assumed): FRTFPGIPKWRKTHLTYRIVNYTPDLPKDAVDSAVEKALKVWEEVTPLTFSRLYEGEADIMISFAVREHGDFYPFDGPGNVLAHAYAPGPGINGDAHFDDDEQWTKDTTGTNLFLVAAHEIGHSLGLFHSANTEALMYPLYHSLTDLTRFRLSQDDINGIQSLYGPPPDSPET
Method: as §1, §2
It should be appreciated that the assay buffer used with MMP-3CD was 50 mM N-morpholinoethane sulfonate (“MES”) at pH 6.0 rather than the HEPES buffer at pH 7.0 described above.
as §3, §4, §5, §7

[4] = molecular target: T3, MMP-7FL (full length matrilysin) (Homo sapiens, UniProt P09237); test: MMP-7 full-length inhibition (Biological Methods 1, 2, or 5)
T3 sequence (P09237 95-267): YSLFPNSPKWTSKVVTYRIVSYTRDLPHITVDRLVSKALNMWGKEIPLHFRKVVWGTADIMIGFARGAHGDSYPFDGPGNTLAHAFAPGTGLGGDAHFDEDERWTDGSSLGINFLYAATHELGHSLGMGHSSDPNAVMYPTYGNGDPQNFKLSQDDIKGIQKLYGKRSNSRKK
Method: as §6
as §4, with “MMP-14. […]” for “MMP-14.”
as §7

[5] = molecular target: T4, MMP-8FL (Homo sapiens, UniProt P22894); test: MMP-8 full-length inhibition (Biological Methods 1, 2, or 5)
T4 construct: MMP-8 full-length
T4 sequence (P22894 101-467): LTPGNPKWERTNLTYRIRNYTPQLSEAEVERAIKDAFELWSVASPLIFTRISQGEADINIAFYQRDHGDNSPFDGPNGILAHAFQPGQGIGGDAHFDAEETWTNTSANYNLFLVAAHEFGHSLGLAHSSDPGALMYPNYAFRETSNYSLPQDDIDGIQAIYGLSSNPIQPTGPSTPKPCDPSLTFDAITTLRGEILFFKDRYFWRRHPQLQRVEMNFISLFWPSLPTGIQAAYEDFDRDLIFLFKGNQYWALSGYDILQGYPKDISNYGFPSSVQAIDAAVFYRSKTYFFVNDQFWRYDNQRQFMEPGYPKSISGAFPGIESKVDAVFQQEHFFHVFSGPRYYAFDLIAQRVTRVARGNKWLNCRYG
Method: as §1, §2, §3, §4, §5, §7

[6] = molecular target: MMP-14CD (catalytic domain of MMP-14) (Homo sapiens, UniProt P50281); test: MMP-14 catalytic domain inhibition (Biological Methods 1, 2, or 5)
Method: as §1, §2, §3, §4, §5, §7

[7] = molecular target: T5, MMP-17CD (Homo sapiens, UniProt Q9ULZ9); test: MMP-17 catalytic domain inhibition (Biological Methods 1, 2, or 5)
T5 construct: MMP-17 catalytic domain (“MMP-17CD”)
T5 sequence (Q9ULZ9 126-295 limits assumed): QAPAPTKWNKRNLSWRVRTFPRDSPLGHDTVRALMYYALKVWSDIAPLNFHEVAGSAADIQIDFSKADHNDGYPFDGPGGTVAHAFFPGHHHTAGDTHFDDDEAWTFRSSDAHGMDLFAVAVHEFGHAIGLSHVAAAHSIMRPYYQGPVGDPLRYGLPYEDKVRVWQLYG
Method: as §1, §2, §3, §4, §5, §7

[8] = molecular target: MMP-9FL (full length Gelatinase B) (Homo sapiens, UniProt P14780); test: MMP-9 full-length inhibition (Biological Methods 1, 2, or 5)
Chain of MMP-9FL (full length Gelatinase B) (P14780 94-707): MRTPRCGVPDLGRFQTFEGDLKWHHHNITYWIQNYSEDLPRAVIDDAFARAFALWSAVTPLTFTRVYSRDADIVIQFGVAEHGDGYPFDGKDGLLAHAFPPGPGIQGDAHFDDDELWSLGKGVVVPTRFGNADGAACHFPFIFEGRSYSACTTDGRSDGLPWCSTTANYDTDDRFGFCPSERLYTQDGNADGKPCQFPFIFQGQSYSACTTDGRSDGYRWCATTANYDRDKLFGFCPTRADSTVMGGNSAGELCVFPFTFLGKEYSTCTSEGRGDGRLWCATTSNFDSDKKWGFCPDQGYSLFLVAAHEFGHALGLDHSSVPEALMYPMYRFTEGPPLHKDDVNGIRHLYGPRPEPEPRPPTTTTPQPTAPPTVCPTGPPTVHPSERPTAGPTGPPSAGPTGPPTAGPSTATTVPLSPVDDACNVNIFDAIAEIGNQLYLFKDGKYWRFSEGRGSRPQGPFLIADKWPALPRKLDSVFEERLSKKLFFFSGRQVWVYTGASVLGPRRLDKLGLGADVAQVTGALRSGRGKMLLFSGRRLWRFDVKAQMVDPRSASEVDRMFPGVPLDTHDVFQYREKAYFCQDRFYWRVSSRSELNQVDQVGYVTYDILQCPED
Method: as §1, §2, §3, §4, §5, §7

[9] = molecular target: T6, MMP-12CD (Homo sapiens, UniProt P39900); test: MMP-12 catalytic domain inhibition (Biological Methods 1, 2, or 5)
T6 construct: MMP-12 catalytic domain (“MMP-12CD”)
T6 sequence (P39900 106-263 limits assumed): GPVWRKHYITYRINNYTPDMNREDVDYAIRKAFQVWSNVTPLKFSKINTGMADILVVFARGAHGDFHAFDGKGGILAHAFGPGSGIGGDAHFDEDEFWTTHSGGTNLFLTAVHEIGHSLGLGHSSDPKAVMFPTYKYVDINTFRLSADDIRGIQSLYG
Method: as §1, §2, §3, §4, §5, §7

SMILES	IC50 [1]	IC50 [2]	IC50 [3]	IC50 [4]	IC50 [5]	IC50 [6]	IC50 [7]	IC50 [8]	IC50 [9]
COc1cccc(CC(=O)Nc2cc3c(=O)n(Cc4ccc(C(=O)O)cc4)cnc3cc2F)c1 [A2]	0.053 µM	> 100 µM	> 100 µM	> 100 µM	> 100 µM	> 100 µM	> 100 µM		
O=C(Cc1ccc(F)cc1)Nc1ccc2ncn(Cc3ccc(C(=O)O)cc3)c(=O)c2c1 [A4]	0.036 µM	> 100 µM	> 100 µM	> 100 µM	> 100 µM	> 30 µM	> 100 µM	> 100 µM	
O=C(Cc1cccc(F)c1)Nc1ccc2ncn(Cc3ccc(C(=O)O)cc3)c(=O)c2c1 [A5]	0.25 µM	> 100 µM	> 100 µM	> 100 µM	> 100 µM	> 30 µM	> 100 µM	> 100 µM	
COc1ccc(CC(=O)Nc2cc3c(=O)n(Cc4ccc(C(=O)O)cc4)cnc3cc2F)cc1 [A6]	0.0053 µM								
Cc1ccc(CC(=O)Nc2cc3c(=O)n(Cc4ccc(C(=O)O)cc4)cnc3cc2F)cc1 [A7]	0.1 µM								
O=C(Cc1ccc(O)cc1)Nc1cc2c(=O)n(Cc3ccc(C(=O)O)cc3)cnc2cc1F [A8]	0.021 µM								
COc1ccc(CC(=O)Nc2ccc3ccn(Cc4ccc(C(=O)O)cc4)c(=O)c3c2)cc1 [B2]	0.013 µM		> 65 µM		> 30 µM	> 30 µM	> 30 µM	> 30 µM	> 30 µM
O=C(Cc1cccc(F)c1)Nc1ccc2ccn(Cc3ccc(C(=O)O)cc3)c(=O)c2c1 [B3]	0.292 µM		> 65 µM		> 30 µM	> 30 µM	> 30 µM	> 30 µM	> 30 µM
O=C(Cc1ccc(F)cc1)Nc1ccc2ccn(Cc3ccc(C(=O)O)cc3)c(=O)c2c1 [B4]	0.048 µM		> 65 µM		> 30 µM	> 30 µM	> 30 µM	> 30 µM	> 30 µM
COc1cccc(CC(=O)Nc2ccc3ncn(Cc4ccc(C(=O)O)cc4)c(=O)c3c2)c1 [Compound Example A1, 4-{6-[2-(3-Methoxy-phenyl)-acetylamino]-4-oxo-4H-quinazolin-3-ylmethyl}-benzoic acid]	0.038 µM		> 65 µM		> 30 µM	> 30 µM	> 30 µM	> 30 µM	> 30 µM
COc1cccc(CC(=O)Nc2ccc3ccn(Cc4ccc(C(=O)O)cc4)c(=O)c3c2)c1 [Compound Example B1, 4-{7-[2-(3-Methoxy-phenyl)-acetylamino]-1-oxo-1H-isoquinolin-2-ylmethyl}-benzoic acid]	0.053 µM		> 65 µM		> 30 µM	> 30 µM	> 30 µM	> 30 µM	> 30 µM
